These results are taken from ChEMBL document CHEMBL1201862, “PubChem BioAssay data set” (2004).

What is called IC50 is the midpoint of a concentration-inhibition curve. The AC50 is the concentration giving half of the maximal activity seen.

Test [1] has as its system Streptococcus sp. 'group A'. Description: growth inhibition of control SK(-) GAS strain, dose response, counter-screen for streptokinase expression inhibitor project, luminescence, kanamycin, BacTiterGlo, confirmation (AID 1900). The format is functional, organism-based. (In general: Counterscreens check selectivity or assay interference.)
Another test has as its target T1, Streptokinase A (Streptococcus pyogenes serotype M1, UniProt P10520).
T1 sequence (P10520 whole entry): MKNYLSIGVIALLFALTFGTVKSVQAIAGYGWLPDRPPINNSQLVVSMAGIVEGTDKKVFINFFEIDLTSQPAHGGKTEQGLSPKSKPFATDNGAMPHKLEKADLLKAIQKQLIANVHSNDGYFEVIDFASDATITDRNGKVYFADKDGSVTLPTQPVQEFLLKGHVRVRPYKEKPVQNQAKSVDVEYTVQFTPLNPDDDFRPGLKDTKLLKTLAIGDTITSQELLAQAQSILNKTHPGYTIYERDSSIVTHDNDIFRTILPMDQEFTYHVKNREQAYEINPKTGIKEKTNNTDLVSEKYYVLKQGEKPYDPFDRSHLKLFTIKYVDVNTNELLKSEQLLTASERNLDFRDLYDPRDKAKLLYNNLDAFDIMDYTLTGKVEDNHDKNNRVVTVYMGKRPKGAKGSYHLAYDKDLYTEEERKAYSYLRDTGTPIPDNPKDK
Description: S. pyogenes streptokinase expression inhibitors, potency, dose response, plasminogen activation absorbance, OD405 (AID 1914).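 Also: secreted streptokinase activity via plasminogen activation per viability signal from cell pellet.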 The format is functional, Streptococcus pyogenes M1 GAS.

For the next test, the system named is Streptococcus. Description: Group A Streptococcus viability loss, dose response, counter-screen for streptokinase expression inhibitor project, luminescence, BacTiterGlo (AID 1915).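 Also: potency for reduction of bacterial viability or growth.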 In kind it is functional, organism-based.
The subject of the next test is H9c2. The experiment in a line: cells. In kind it is functional, cell-based. As to conditions: Rattus norvegicus, H9c2, Myocardium.
A further test concerns the target Large T antigen (Simian virus 40, UniProt P03070). The format is functional, Betapolyomavirus macacae.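 Also: Confirmatory-stage PubChem screen for compounds that inhibit SV40 T antigen.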
The target in test [2] is T2, Replicative DNA helicase DnaB (Mycobacterium tuberculosis, UniProt P9WMR3).
T2 sequence (P9WMR3 whole entry): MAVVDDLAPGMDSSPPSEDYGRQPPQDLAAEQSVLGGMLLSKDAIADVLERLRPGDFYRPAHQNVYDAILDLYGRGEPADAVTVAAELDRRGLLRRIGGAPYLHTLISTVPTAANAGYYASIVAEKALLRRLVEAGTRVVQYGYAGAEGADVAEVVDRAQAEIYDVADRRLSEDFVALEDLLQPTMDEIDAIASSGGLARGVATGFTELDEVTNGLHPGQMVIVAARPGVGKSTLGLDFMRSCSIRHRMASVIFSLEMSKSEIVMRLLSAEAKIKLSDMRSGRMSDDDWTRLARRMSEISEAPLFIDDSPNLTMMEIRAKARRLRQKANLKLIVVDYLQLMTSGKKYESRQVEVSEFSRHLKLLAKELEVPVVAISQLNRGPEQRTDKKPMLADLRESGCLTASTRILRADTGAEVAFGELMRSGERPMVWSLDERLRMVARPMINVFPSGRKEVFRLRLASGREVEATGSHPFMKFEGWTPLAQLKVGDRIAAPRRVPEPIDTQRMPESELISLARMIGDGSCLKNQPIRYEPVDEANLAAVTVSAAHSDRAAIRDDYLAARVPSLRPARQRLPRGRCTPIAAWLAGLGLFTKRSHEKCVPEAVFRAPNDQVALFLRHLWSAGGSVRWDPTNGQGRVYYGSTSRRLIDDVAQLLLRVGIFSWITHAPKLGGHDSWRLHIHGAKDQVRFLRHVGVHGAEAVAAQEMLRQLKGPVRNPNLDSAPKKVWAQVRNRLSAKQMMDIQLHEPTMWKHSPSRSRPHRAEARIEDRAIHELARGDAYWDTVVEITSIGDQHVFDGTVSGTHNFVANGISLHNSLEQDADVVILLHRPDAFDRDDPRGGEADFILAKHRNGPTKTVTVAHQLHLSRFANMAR
Description: DnaB intein splicing inhibitors, dose response, biochemical, cell-free fluorescence (AID 449749). In kind it is functional.

The target in another test is T3, Protein RecA (Mycobacterium tuberculosis, UniProt P9WHJ3).
T3 sequence (P9WHJ3 whole entry): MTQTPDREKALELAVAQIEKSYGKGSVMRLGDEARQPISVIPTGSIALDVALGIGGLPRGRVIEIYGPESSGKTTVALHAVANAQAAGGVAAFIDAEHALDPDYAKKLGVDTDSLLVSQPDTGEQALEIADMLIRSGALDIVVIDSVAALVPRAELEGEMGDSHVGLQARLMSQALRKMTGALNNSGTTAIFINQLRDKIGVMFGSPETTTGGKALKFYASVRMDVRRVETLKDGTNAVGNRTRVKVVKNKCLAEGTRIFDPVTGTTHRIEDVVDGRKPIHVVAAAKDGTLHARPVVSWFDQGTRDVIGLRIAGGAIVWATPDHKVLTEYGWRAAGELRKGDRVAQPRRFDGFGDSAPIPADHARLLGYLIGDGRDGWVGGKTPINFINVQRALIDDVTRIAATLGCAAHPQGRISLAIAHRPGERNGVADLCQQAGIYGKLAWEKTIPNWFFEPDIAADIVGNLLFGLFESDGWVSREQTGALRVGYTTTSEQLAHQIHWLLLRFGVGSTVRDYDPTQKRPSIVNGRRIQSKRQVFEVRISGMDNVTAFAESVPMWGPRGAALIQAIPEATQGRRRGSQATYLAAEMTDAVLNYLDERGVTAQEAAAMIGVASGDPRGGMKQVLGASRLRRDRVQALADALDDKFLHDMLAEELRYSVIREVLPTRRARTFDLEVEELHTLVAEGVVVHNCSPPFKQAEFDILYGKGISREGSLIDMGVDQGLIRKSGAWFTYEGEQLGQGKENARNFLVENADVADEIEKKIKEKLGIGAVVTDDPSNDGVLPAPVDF
Description: Fluorescence Cell-Free Homogeneous Dose Retest to Identify Inhibitors of RecA-Intein Splicing Activity. [Related pubchem assays (depositor defined):AID2097, AID2223, AID489010, AID492950]. In kind it is functional.

Test [3] deals with T4, Corticotropin-releasing factor receptor 2/Corticotropin-releasing factor-binding protein (Homo sapiens, UniProt P24387+Q13324).
T4 sequence (Q13324 whole entry): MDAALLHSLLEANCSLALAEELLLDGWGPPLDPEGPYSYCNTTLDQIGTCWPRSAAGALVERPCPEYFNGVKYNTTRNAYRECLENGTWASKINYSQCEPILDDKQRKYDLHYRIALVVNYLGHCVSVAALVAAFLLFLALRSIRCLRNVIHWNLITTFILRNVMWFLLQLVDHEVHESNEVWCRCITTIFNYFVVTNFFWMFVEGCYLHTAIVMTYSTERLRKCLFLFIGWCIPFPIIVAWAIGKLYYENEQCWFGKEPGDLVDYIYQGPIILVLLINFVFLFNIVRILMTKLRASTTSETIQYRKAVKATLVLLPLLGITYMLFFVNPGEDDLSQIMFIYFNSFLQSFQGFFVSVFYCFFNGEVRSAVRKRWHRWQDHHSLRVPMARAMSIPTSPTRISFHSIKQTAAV
T4 sequence (P24387 whole entry): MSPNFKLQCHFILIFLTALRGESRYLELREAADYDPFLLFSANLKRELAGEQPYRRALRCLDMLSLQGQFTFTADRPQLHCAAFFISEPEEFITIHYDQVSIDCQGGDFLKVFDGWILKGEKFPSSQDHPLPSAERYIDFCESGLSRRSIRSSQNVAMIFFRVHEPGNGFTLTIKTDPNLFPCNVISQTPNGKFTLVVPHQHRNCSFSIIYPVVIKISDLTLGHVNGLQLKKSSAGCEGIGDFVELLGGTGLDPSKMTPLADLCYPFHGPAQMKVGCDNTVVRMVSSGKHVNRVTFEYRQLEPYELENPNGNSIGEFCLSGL
The experiment in a line: activators of CRF receptor 2 with binding protein – uHTS hits, confirmation (AID 602473). As to conditions: read-out: EC50_Mean. The format is functional.

The nature of test [4]: Luminescence Cell-Based Dose Response HTS to Identify Inhibitors of 5'UTR Stem-Loop Driven Prion Protein mRNA Translation in H4 Neuroglioblastoma Cells. [Related pubchem assays: 1827 (Project Summary), 1813 (Primary HTS)]. In kind it is functional.
Test [5] in a line: inhibitors of SNCA 5'UTR-driven reporter translation, confirmation, H4 neuroglioma cells, luminescence (AID 1988). In kind it is functional, cell-based.

Calls of active or inactive are those of the source. Rule as the data show it, for most assays here: actives have a measured EC50 and inactives only a lower limit.

Large T antigen, sequence (P03070 whole entry): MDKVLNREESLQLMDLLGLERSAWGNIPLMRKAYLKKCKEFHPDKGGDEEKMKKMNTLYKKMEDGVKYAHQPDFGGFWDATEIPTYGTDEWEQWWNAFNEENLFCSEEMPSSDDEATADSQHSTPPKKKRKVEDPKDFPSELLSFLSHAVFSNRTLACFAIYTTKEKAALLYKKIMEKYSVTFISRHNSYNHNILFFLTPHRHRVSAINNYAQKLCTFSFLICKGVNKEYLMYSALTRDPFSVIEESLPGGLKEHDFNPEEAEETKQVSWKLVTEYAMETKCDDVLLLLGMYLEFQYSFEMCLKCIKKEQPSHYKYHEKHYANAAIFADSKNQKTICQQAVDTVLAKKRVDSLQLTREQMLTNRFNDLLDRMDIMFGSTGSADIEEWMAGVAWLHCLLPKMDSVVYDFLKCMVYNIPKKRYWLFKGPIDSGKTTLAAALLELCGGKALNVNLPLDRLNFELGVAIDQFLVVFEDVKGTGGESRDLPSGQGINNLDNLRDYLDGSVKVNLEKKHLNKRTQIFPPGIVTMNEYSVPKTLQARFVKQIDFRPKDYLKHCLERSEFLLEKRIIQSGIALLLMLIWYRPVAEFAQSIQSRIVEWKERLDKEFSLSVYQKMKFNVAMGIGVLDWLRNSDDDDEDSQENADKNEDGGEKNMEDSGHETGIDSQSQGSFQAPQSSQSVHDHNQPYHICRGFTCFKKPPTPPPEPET

For `O=C(NNC(=S)NC(=O)c1ccccc1)c1ccc(O)cc1`, the EC50 in [1] was 4.64 µM (active); on Streptokinase A, > 150 µM (not active); with Streptococcus it was 52.4 µM (inconclusive). With `O=C(CCc1nc(O)c2ccccc2n1)N1CCN(S(=O)(=O)c2cccc(F)c2)CC1`, in the test with H9c2, the IC50 was > 79 µM (inactive). For the compound `O=C(COC(=O)CCc1nc(O)c2ccccc2n1)Nc1ccc2c(c1)OCO2`, the IC50 in the test with H9c2 was > 79 µM (inactive). In the case of `CCn1cc(C(=O)NC(=S)Nc2ccccc2Br)cn1`, the EC50 (in test [1]; on Streptokinase A; in the test on Streptococcus) was > 150 µM (not active) throughout. Consider `CCCc1cc(N2CCN(C(=O)c3ccco3)CC2)n2c(nc3ccccc32)c1C#N`, for which the IC50 in the test with H9c2 was > 79 µM (inactive).

With `CCOc1cc(C(c2c(C)n[nH]c2O)c2c(C)n[nH]c2O)ccc1OC(=O)c1cccc([N+](=O)[O-])c1`, the IC50 on Large T antigen was > 100 µM (active). Moreover, the AC50 in [2] is 0.365 µM (active). The EC50 at Protein RecA was 0.205 µM (active). Turning to `COc1ccc(-n2c(/C=C/c3ccc(O)cc3)nc3ccccc3c2=O)cc1`, the IC50 with H9c2 is > 79 µM (inactive).

As to `O=C(NC(=S)N1CCN(c2ccc(O)cc2)CC1)c1cccs1`, on Large T antigen, the IC50 is 5.39 µM (active). On to `Cc1ccc2ccc(C(Nc3ccccn3)c3ccccc3)c(O)c2n1` (stereo unspecified), for which the results for the EC50 (in [1]; at Streptokinase A; in the test on Streptococcus) were 1.52 µM (active), > 150 µM (not active) and 63.5 µM (active), respectively. Take `Cc1sc2nc(SCC(=O)NCc3ccco3)nc(O)c2c1C`: in the test with H9c2, the IC50 is > 79 µM (inactive).

`Nc1ccc(NC(=O)NC2CCCCC2)cc1`: on Large T antigen, the IC50 is 10.5 µM (active). Take `CC(=O)Nc1ccc(S(=O)(=O)Nc2nc3ccccc3nc2Nc2ccc(N)cc2)cc1`: the IC50 on Large T antigen was 18.5 µM (active).

As for `CCCN1CCc2c(sc(NC(=O)c3ccc(S(=O)(=O)N4CCN(C(=O)OCC)CC4)cc3)c2C(N)=O)C1`, the EC50 is 51.8 µM (active) in test [1], > 150 µM (not active) at Streptokinase A, > 150 µM (not active) in the test on Streptococcus and 15.2 µM (active) in test [3]. Regarding `COc1ccc(OC)c(CCNC(=O)C(=O)Nc2ccc3nc4n(c(=O)c3c2)CCCCC4)c1`, the EC50 is 4.97 µM (active) in [1], 16.6 µM (active) at Streptokinase A and 18.3 µM (active) in the test with Streptococcus.

Consider `COCCCN1C(=O)/C(=C/c2ccc(CNS(=O)(=O)c3ccccc3)o2)C(C(=O)OC)=C1C`, for which the EC50 in test [1] is 28.9 µM (active); on Streptokinase A, > 150 µM (not active); in the test on Streptococcus, > 150 µM (not active). `O=C(CCc1nc(O)c2ccccc2n1)NCCN1C(=O)S/C(=C\c2ccc(OC(F)F)cc2)C1=O`: the IC50 with H9c2 was > 79 µM (inactive). Turning to `Cc1csc2nc(COC(=O)c3ccc(Cl)c([N+](=O)[O-])c3)cc(=O)n12`, the IC50 in the test on H9c2 was > 79 µM (inactive).

As for `C[C@H](CO)N1C[C@H](C)[C@@H](CN(C)C(=O)Nc2ccc3c(c2)OCO3)Oc2c(NC(=O)Nc3ccc(C(F)(F)F)cc3)cccc2C1=O`, the IC50 with H9c2 is 21.3 µM (active). Take `Cc1ccccc1OCC(=O)NNC(=O)Cn1[nH]c(=O)c2ccccc2c1=O`: the IC50 in the test with H9c2 is > 79 µM (inactive). On the same count and under the same terms, with `COc1cccc(-c2cc3nc(C)c(C)c(N4CCN(C(=O)c5ccoc5)CC4)n3n2)c1` the figure was > 79 µM (inactive); with `Cn1c(/C=N/NC(=O)c2ccccc2)nc2ccccc21`, 13.5 µM (active). Same read-out and setting: to `O=C(N/N=C/c1cccc(O)c1)c1cc(-c2ccc3c(c2)OCO3)[nH]n1` belongs > 79 µM (inactive). Turning to `O=C(O)c1cccc(N/N=C/c2cccc3ccccc23)c1`, the EC50 in test [4] was 4.51 µM (active); in [5] it was 1.5 µM (active). With `CCn1c(SCC(=O)N/N=C/c2ccc(O)c(OC)c2)nc2ccccc21`, the IC50 at Large T antigen was 20.4 µM (active). Still for that read-out and setting: to `CCOc1ccc(/C=N/NC(=O)CSc2ccccn2)cc1O` belongs 17.7 µM (active).
